The conditions of data set [1]: cited from earlier work.
For data set [2] the following is noted: cited from earlier work. The source holds these as a separate data set.
The conditions of data set [3]: cited from earlier work. The source holds these as a separate data set.
Data set [4] concerns the target wild-type TTR in human plasma (Homo sapiens, UniProt P02766). As to the kind of experiment: Ex vivo competitive binding assay using a fluorogenic probe in human plasma. To be noted: for binding to TTR in human plasma (probe fluorescence intensity), in words: 6 h of incubation, Figure 3 / Figures S2–S4.

Where only a bound is given, the exact number is not on record here.

In the case of `O=C(O)c1ccc2nc(-c3cc(Cl)cc(Cl)c3)oc2c1` [Compound 1, Tafamidis], in data set [1], the “hepatic microsome stability in rats” value was 38.7 mL/min/kg. Moreover, the “aqueous solubility pH 6.8” value in data set [2] is reported as over 100 μM. Also, the PAMPA permeability in data set [3] is recorded as >50 ×10^–6 cm/s.

For `CCc1oc2ccccc2c1C(=O)c1cc(I)c(O)c(I)c1` [Compound 3, benziodarone], the “fluorescence intensity of the probe relative to the control (DMSO)” value in data set [4] (compound 20 μM, human plasma with 5 μM TTR, Figure 2) was “approximately 30%”.

`CCc1sc2ccccc2c1C(=O)c1cc(I)c(O)c(I)c1` [Compound 14, (2-Ethylbenzo[b]thien-3-yl)(4-hydroxy-3,5-diiodophenyl)methanone]: the “binding to TTR in human plasma (probe fluorescence intensity), in words” value (“binding to TTR in human plasma” for short) in data set [4] was “weaker binding compared to 3”.

Consider `CCc1oc2ccc(Cl)c(Cl)c2c1C(=O)c1cc(I)c(O)c(I)c1` [Compound 18, (4,5-Dichloro-2-ethylbenzofuran-3-yl)(4-hydroxy-3,5-diiodophenyl)methanone], for which the “binding to TTR in human plasma” value in data set [4] is “remarkably reduced compared to that of 7”.

For the compound `CCc1oc2c(Cl)c(Cl)ccc2c1C(=O)c1cc(I)c(O)c(I)c1` [Compound 19, (6,7-Dichloro-2-ethylbenzofuran-3-yl)(4-hydroxy-3,5-diiodophenyl)methanone], in data set [4], the “binding to TTR in human plasma” value was “remarkably reduced compared to that of 7”.

These data come from paper PMC11089511 (Journal of Medicinal Chemistry, 2024).
